# From ChEMBL document CHEMBL3885881, “DrugMatrix”
# Species: Rattus norvegicus
# Assay: DrugMatrix - Regimen: Daily Repeat
# Type: toxicity, organism-based, Sprague-Dawley
# Set-up: regimen Daily Repeat, gender Male, age 6-8 weeks
# Details: in vivo, po, 80 mg/kg, route oral GAVAGE, dose level High, vehicle .5 % CMC; for ABSOLUTE BASOPHIL / ABSOLUTE EOSINOPHIL / ABSOLUTE LYMPHOCYTE / ABSOLUTE MONOCYTE / ABSOLUTE SEGMENTED NEUTROPHIL / BASOPHIL / EOSINOPHIL / ERYTHROCYTE COUNT / HEMATOCRIT / HEMOGLOBIN / LEUKOCYTE COUNT / LYMPHOCYTE / MEAN CORPUSCULAR HEMOGLOBIN / MEAN CORPUSCULAR HEMOGLOBIN CONCENTRATION / MEAN CORPUSCULAR VOLUME / MONOCYTE / NEUTROPHIL / PLATELET COUNT: tissue Blood; for ALANINE AMINOTRANSFERASE / ALBUMIN / ALKALINE PHOSPHATASE / ASPARTATE AMINOTRANSFERASE / BLOOD UREA NITROGEN / CHLORIDE / CHOLESTEROL / CREATINE PHOSPHOKINASE / CREATININE / GLUCOSE / LACTATE DEHYDROGENASE / LIPASE / PHOSPHORUS / POTASSIUM / SODIUM / TOTAL BILIRUBIN / TOTAL PROTEIN / URIC ACID: tissue Plasma
structure (smiles),measurement,setting,value
O=c1cc(-c2ccccc2)oc2c1ccc1ccccc12 [ALPHA-NAPHTHOFLAVONE],ABSOLUTE BASOPHIL,"120 h, time 5 day",170 cells/µL
same,ABSOLUTE EOSINOPHIL,"120 h, time 5 day",42.5 cells/µL
same,ABSOLUTE LYMPHOCYTE,"120 h, time 5 day",11500 cells/µL
same,ABSOLUTE MONOCYTE,"120 h, time 5 day",230 cells/µL
same,ABSOLUTE SEGMENTED NEUTROPHIL,"120 h, time 5 day",1790 cells/µL
same,BASOPHIL,"120 h, time 5 day",1.35%
same,EOSINOPHIL,"120 h, time 5 day",0.35%
same,ERYTHROCYTE COUNT,"120 h, time 5 day",7.43 x10E6/uL
same,HEMATOCRIT,"120 h, time 5 day",46.52%
same,HEMOGLOBIN,"120 h, time 5 day",15.82 G/DL
same,LEUKOCYTE COUNT,"120 h, time 5 day",13.81 x10E3/uL
same,LYMPHOCYTE,"120 h, time 5 day",82.92%
same,MEAN CORPUSCULAR HEMOGLOBIN,"120 h, time 5 day",21.35 pg
same,MEAN CORPUSCULAR HEMOGLOBIN CONCENTRATION,"120 h, time 5 day",34.08 G/DL
same,MEAN CORPUSCULAR VOLUME,"120 h, time 5 day",62.67 fL
same,MONOCYTE,"120 h, time 5 day",1.57%
same,NEUTROPHIL,"120 h, time 5 day",13.3%
same,PLATELET COUNT,"120 h, time 5 day",1518.75 x10E3/uL
same,ALANINE AMINOTRANSFERASE,"120 h, time 5 day",31.25 u/L
same,ALBUMIN,"120 h, time 5 day",3.65 G/DL
same,ALKALINE PHOSPHATASE,"120 h, time 5 day",212.25 u/L
same,ASPARTATE AMINOTRANSFERASE,"120 h, time 5 day",78.25 u/L
same,BLOOD UREA NITROGEN,"120 h, time 5 day",9.25 mg/dL
same,CHLORIDE,"120 h, time 5 day",108 MEQ/L
same,CHOLESTEROL,"120 h, time 5 day",61 mg/dL
same,CREATINE PHOSPHOKINASE,"120 h, time 5 day",190.25 u/L
same,CREATININE,"120 h, time 5 day",0.53 mg/dL
same,GLUCOSE,"120 h, time 5 day",111 mg/dL
same,LACTATE DEHYDROGENASE,"120 h, time 5 day",112.75 u/L
same,LIPASE,"120 h, time 5 day",16.75 u/L
same,PHOSPHORUS,"120 h, time 5 day",12.3 mg/dL
same,POTASSIUM,"120 h, time 5 day",6.75 MEQ/L
same,SODIUM,"120 h, time 5 day",151.5 MEQ/L
same,TOTAL BILIRUBIN,"120 h, time 5 day",0.23 mg/dL
same,TOTAL PROTEIN,"120 h, time 5 day",6.07 G/DL
same,URIC ACID,"120 h, time 5 day",0.72 mg/dL
same,ABSOLUTE BASOPHIL,"2184 h, time 91 day",340 cells/µL
same,ABSOLUTE EOSINOPHIL,"2184 h, time 91 day",100 cells/µL
same,ABSOLUTE LYMPHOCYTE,"2184 h, time 91 day",10400 cells/µL
same,ABSOLUTE MONOCYTE,"2184 h, time 91 day",180 cells/µL
same,ABSOLUTE SEGMENTED NEUTROPHIL,"2184 h, time 91 day",1510 cells/µL
same,BASOPHIL,"2184 h, time 91 day",2.59%
same,EOSINOPHIL,"2184 h, time 91 day",0.83%
same,ERYTHROCYTE COUNT,"2184 h, time 91 day",9.33 x10E6/uL
same,HEMATOCRIT,"2184 h, time 91 day",49.58%
same,HEMOGLOBIN,"2184 h, time 91 day",16.44 G/DL
same,LEUKOCYTE COUNT,"2184 h, time 91 day",12.6 x10E3/uL
same,LYMPHOCYTE,"2184 h, time 91 day",82.74%
same,MEAN CORPUSCULAR HEMOGLOBIN,"2184 h, time 91 day",17.63 pg
same,MEAN CORPUSCULAR HEMOGLOBIN CONCENTRATION,"2184 h, time 91 day",33.15 G/DL
same,MEAN CORPUSCULAR VOLUME,"2184 h, time 91 day",53.18 fL
same,MONOCYTE,"2184 h, time 91 day",1.38%
same,NEUTROPHIL,"2184 h, time 91 day",12.04%
same,PLATELET COUNT,"2184 h, time 91 day",1261.8 x10E3/uL
same,ALANINE AMINOTRANSFERASE,"2184 h, time 91 day",28.3 u/L
same,ALBUMIN,"2184 h, time 91 day",3.77 G/DL
same,ALKALINE PHOSPHATASE,"2184 h, time 91 day",94.2 u/L
same,ASPARTATE AMINOTRANSFERASE,"2184 h, time 91 day",64.7 u/L
same,BLOOD UREA NITROGEN,"2184 h, time 91 day",15.9 mg/dL
same,CHLORIDE,"2184 h, time 91 day",103.2 MEQ/L
same,CHOLESTEROL,"2184 h, time 91 day",70.3 mg/dL
same,CREATINE PHOSPHOKINASE,"2184 h, time 91 day",80.9 u/L
same,CREATININE,"2184 h, time 91 day",0.54 mg/dL
same,GLUCOSE,"2184 h, time 91 day",152 mg/dL
same,LACTATE DEHYDROGENASE,"2184 h, time 91 day",46.3 u/L
same,LIPASE,"2184 h, time 91 day",18.7 u/L
same,PHOSPHORUS,"2184 h, time 91 day",8.35 mg/dL
same,POTASSIUM,"2184 h, time 91 day",6.21 MEQ/L
same,SODIUM,"2184 h, time 91 day",149.8 MEQ/L
same,TOTAL BILIRUBIN,"2184 h, time 91 day",0.21 mg/dL
same,TOTAL PROTEIN,"2184 h, time 91 day",7.38 G/DL
same,URIC ACID,"2184 h, time 91 day",0.89 mg/dL
same,ABSOLUTE BASOPHIL,"[…], time 28 day",200 cells/µL
same,ABSOLUTE EOSINOPHIL,"[…], time 28 day",76 cells/µL
same,ABSOLUTE LYMPHOCYTE,"[…], time 28 day",13000 cells/µL
same,ABSOLUTE MONOCYTE,"[…], time 28 day",200 cells/µL
same,ABSOLUTE SEGMENTED NEUTROPHIL,"[…], time 28 day",1710 cells/µL
same,BASOPHIL,"[…], time 28 day",1.28%
same,EOSINOPHIL,"[…], time 28 day",0.48%
same,ERYTHROCYTE COUNT,"[…], time 28 day",8.57 x10E6/uL
same,HEMATOCRIT,"[…], time 28 day",47.9%
same,HEMOGLOBIN,"[…], time 28 day",15.96 G/DL
same,LEUKOCYTE COUNT,"[…], time 28 day",15.29 x10E3/uL
same,LYMPHOCYTE,"[…], time 28 day",85.76%
same,MEAN CORPUSCULAR HEMOGLOBIN,"[…], time 28 day",18.62 pg
same,MEAN CORPUSCULAR HEMOGLOBIN CONCENTRATION,"[…], time 28 day",33.3 G/DL
same,MEAN CORPUSCULAR VOLUME,"[…], time 28 day",55.92 fL
same,MONOCYTE,"[…], time 28 day",1.36%
same,NEUTROPHIL,"[…], time 28 day",10.8%
same,PLATELET COUNT,"[…], time 28 day",1456 x10E3/uL
same,ALANINE AMINOTRANSFERASE,"[…], time 28 day",26.4 u/L
same,ALBUMIN,"[…], time 28 day",3.66 G/DL
same,ALKALINE PHOSPHATASE,"[…], time 28 day",157.4 u/L
same,ASPARTATE AMINOTRANSFERASE,"[…], time 28 day",65.6 u/L
same,BLOOD UREA NITROGEN,"[…], time 28 day",13.6 mg/dL
same,CHLORIDE,"[…], time 28 day",104 MEQ/L
same,CHOLESTEROL,"[…], time 28 day",49.8 mg/dL
same,CREATINE PHOSPHOKINASE,"[…], time 28 day",102 u/L
same,CREATININE,"[…], time 28 day",0.46 mg/dL
same,GLUCOSE,"[…], time 28 day",153.8 mg/dL
same,LACTATE DEHYDROGENASE,"[…], time 28 day",60 u/L
same,LIPASE,"[…], time 28 day",19 u/L
same,PHOSPHORUS,"[…], time 28 day",9.14 mg/dL
same,POTASSIUM,"[…], time 28 day",5.7 MEQ/L
same,SODIUM,"[…], time 28 day",151 MEQ/L
same,TOTAL BILIRUBIN,"[…], time 28 day",0.22 mg/dL
same,TOTAL PROTEIN,"[…], time 28 day",6.76 G/DL
same,URIC ACID,"[…], time 28 day",0.26 mg/dL
